Where two headings read alike, the source gives them in different places.
Experiments:
Assay type in all cases: biochemical
CDK2/CCNE1 = CDK2/CCNE1 (Homo sapiens, UniProt P24941); assay: CDK2 homogeneous time-resolved fluorescence (HTRF) kinase assay; conditions: CDK2/CCNE
Summary of the method: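 3 nM CDK2/CCNE1 was preincubated with compound for 20 min at 23 °C in HEPES buffer (pH not stated), then reacted 60 min with 1 mM ATP and 50 nM ULight-4E-BP1 (Thr37/46) peptide. After EDTA stop, Eu-anti-phospho-4E-BP1 antibody (2 nM) was added for 60 min and TR-FRET read at 665 nm.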

CDK1/CCNB1 = CDK1/CCNB1 (Homo sapiens, UniProt P06493); assay: CDK1 homogeneous time-resolved fluorescence (HTRF) kinase assay; conditions: CDK1/CCNB; x = IC50 >250 nM; read-out: CDK1/CCNB IC50 (>250 nM column)
Chain of CDK1/CCNB1 (P06493 whole entry): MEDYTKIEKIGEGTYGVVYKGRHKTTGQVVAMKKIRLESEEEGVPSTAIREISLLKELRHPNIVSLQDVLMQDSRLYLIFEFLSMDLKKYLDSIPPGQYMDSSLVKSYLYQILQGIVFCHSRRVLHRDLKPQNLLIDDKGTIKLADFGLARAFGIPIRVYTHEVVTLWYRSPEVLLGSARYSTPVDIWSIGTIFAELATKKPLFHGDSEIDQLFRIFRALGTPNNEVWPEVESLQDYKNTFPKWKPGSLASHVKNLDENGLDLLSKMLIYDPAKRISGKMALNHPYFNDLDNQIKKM
Chain of CDK1/CCNB1 (P14635 whole entry partner): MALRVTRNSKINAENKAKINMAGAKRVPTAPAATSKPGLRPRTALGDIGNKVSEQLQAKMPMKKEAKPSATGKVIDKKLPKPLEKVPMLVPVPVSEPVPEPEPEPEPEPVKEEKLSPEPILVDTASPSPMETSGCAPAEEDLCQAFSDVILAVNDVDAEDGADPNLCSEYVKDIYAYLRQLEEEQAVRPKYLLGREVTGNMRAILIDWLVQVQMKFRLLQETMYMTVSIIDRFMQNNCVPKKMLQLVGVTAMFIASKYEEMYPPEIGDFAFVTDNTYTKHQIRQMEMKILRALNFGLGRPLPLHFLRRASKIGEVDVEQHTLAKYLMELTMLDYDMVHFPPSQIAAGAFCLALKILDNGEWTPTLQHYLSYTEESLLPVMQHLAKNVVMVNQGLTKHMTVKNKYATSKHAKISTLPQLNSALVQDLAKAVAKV
Summary of the method: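 Compounds, titrated 11 points in half-log steps typically from 10 μM, were incubated with enzyme for 20 min before ATP (1 mM) and ULight-labelled eIF4E-binding protein 1 peptide (50 nM) started a 60-min reaction at 23 °C. Phosphopeptide was detected by europium-antibody TR-FRET and IC50 values were derived.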

CDK4/CCND3 = CDK4/CCND3 (Homo sapiens, UniProt P11802); assay: CDK4 homogeneous time-resolved fluorescence (HTRF) kinase assay; conditions: CDK4/CCND
Chain of CDK4/CCND3 (P11802 whole entry): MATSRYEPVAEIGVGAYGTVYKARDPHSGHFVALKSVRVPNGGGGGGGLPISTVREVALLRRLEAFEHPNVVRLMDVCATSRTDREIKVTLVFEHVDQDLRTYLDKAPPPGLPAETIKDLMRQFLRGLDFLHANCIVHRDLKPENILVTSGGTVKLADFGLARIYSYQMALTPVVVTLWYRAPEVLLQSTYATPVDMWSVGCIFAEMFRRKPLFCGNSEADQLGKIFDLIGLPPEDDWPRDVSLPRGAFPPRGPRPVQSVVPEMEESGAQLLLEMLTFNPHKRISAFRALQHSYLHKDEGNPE
Chain of CDK4/CCND3 (P30281 whole entry partner): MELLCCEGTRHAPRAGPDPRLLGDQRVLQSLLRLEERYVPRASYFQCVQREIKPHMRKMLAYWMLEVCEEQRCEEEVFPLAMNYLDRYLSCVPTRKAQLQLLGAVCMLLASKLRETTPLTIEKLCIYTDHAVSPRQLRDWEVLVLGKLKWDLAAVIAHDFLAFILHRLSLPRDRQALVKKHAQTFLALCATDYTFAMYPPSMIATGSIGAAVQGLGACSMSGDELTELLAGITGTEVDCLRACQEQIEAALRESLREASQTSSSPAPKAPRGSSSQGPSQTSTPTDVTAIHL
Summary of the method: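 Compounds were preincubated with 1.5 nM CDK4/CCND3 for 20 min at 23 °C in HEPES buffer (pH not given), then reacted 60 min with 1 mM ATP and 50 nM ULight-4E-BP1 (Thr37/46) peptide. EDTA stop, Eu-anti-phospho-4E-BP1 detection; 665/615 nm ratio; IC50 from 11-point half-log titrations from 10 μM.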

CDK6/CCND1 = CDK6/CCND1 (Homo sapiens, UniProt Q00534); assay: CDK6 homogeneous time-resolved fluorescence (HTRF) kinase assay; conditions: CDK6/CCND
Chain of CDK6/CCND1 (Q00534 whole entry): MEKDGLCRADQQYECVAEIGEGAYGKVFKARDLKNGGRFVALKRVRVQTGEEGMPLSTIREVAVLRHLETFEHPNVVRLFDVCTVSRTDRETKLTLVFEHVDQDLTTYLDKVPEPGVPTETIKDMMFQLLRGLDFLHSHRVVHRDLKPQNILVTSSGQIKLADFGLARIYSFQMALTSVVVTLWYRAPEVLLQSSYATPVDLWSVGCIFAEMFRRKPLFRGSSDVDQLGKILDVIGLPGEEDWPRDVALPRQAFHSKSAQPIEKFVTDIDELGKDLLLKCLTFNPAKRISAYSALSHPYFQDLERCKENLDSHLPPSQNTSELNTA
Chain of CDK6/CCND1 (P24385 whole entry partner): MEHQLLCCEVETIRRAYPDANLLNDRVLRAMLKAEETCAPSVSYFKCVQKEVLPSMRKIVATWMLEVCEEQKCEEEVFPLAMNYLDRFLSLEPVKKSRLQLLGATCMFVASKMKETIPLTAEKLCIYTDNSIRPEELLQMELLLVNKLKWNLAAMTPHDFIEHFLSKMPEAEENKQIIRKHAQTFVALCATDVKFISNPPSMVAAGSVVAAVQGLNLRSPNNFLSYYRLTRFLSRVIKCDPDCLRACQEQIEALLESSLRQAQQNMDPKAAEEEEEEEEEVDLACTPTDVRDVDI
Summary of the method: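 1 nM enzyme, 1 mM ATP, 50 nM ULight-4E-BP1 (Thr37/46) peptide, 1% DMSO; 20 min compound preincubation, 60 min reaction, 23 °C. EDTA stop, 2 nM Eu-anti-phospho-4E-BP1 antibody 60 min. TR-FRET 665 nm (or 665/615 ratio); IC50 from 11-point half-log titration, top 10 μM.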

[1] = x = IC50 >250 nM, read-out: CDK4/CCND IC50 (>250 nM column)
[2] = x = IC50 >250 nM, read-out: CDK6/CCND IC50 (>250 nM column)
[3] = x = IC50 25-250 nM, read-out: CDK2/CCNE IC50 (25-250 nM)
[4] = x = IC50 <25 nM, read-out: CDK2/CCNE IC50 (<25 nM)
[5] = x = IC50 25-250 nM, read-out: CDK6/CCND IC50 (25-250 nM)

Structure (SMILES)	IC50 (CDK2/CCNE1; x = IC50 >250 nM, read-out: CDK2/CCNE IC50 (>250 nM column)) [µM]	IC50 (CDK1/CCNB1) [µM]	IC50 (CDK4/CCND3; [1]) [µM]	IC50 (CDK6/CCND1; [2]) [µM]	IC50 (CDK2/CCNE1; [3]) [µM]	IC50 (CDK2/CCNE1; [4]) [µM]	IC50 (CDK6/CCND1; [5]) [µM]	IC50 (CDK4/CCND3; x = IC50 25-250 nM, read-out: CDK4/CCND IC50 (25-250 nM)) [µM]
CC(=O)Nc1cc(Nc2cc3c(-c4ccc5c(cnn5CCO)c4C)nccc3cn2)ccc1S(C)(=O)=O [Example 593, N-(5-((5-(1-(2-hydroxyethyl)-4-methyl-1H-indazol-5-yl)-2,6-naphthyridin-3-yl)amino)-2-(methylsulfonyl)phenyl)acetamide]	–	> 0.25	> 0.25	> 0.25	0.025 to 0.25	–	–	–
COC(=O)c1cc2ccc(C#Cc3nccc4cnc(Nc5ccc(S(C)(=O)=O)cc5)cc34)cc2[nH]1 [Example 594, methyl 6-((7-((4-(methylsulfonyl)phenyl)amino)-2,6-naphthyridin-1-yl)ethynyl)-1H-indole-2-carboxylate]	–	> 0.25	> 0.25	> 0.25	0.025 to 0.25	–	–	–
Cc1c(-c2nccc3cnc(Nc4ccc(S(C)(=O)=O)cc4)cc23)ccc2c1cnn2CC(O)(C(F)(F)F)C(F)(F)F [Example 595, 1,1,1,3,3,3-hexafluoro-2-((4-methyl-5-(7-((4-(methylsulfonyl)phenyl)amino)-2,6-naphthyridin-1-yl)-1H-indazol-1-yl)methyl)propan-2-ol]	–	> 0.25	> 0.25	–	–	< 0.025	0.025 to 0.25	–
CS(=O)(=O)c1ccc(Nc2cc3c(C#CC4CCN(Cc5cn[nH]c5)CC4)nccc3cn2)cc1 [Example 603, 5-((1-((1H-pyrazol-4-yl)methyl)piperidin-4-yl)ethynyl)-N-(4-(methylsulfonyl)phenyl)-2,6-naphthyridin-3-amine]	–	> 0.25	> 0.25	–	–	< 0.025	0.025 to 0.25	–
CC(C)(O)CN1CCc2cc(-c3nccc4cnc(Nc5ccc(S(C)(=O)=O)cc5)cc34)ccc2C1 [Example 629, 2-Methyl-1-(6-(7-((4-(methylsulfonyl)phenyl)amino)-2,6-naphthyridin-1-yl)-3,4-dihydroisoquinolin-2(1H)-yl)propan-2-ol]	–	> 0.25	> 0.25	–	–	< 0.025	0.025 to 0.25	–
CC(=O)NCCn1cc2c(C)c(-c3nccc4cnc(Nc5ccc(S(C)(=O)=O)cc5)cc34)ccc2n1 [Example 630, N-(2-(4-methyl-5-(7-((4-(methylsulfonyl)phenyl)amino)-2,6-naphthyridin-1-yl)-2H-indazol-2-yl)ethyl)acetamide]	–	> 0.25	–	–	–	< 0.025	0.025 to 0.25	0.025 to 0.25

The remaining lines, values ahead:

IC50 (CDK2/CCNE1; x = IC50 >250 nM, read-out: CDK2/CCNE IC50 (>250 nM column)) [µM]	IC50 (CDK1/CCNB1) [µM]	IC50 (CDK4/CCND3; [1]) [µM]	IC50 (CDK6/CCND1; [2]) [µM]	IC50 (CDK2/CCNE1; [3]) [µM]	IC50 (CDK2/CCNE1; [4]) [µM]	IC50 (CDK6/CCND1; [5]) [µM]	IC50 (CDK4/CCND3; x = IC50 25-250 nM, read-out: CDK4/CCND IC50 (25-250 nM)) [µM]	Structure (SMILES)
> 0.25	> 0.25	> 0.25	> 0.25	–	–	–	–	CS(=O)(=O)c1ccc(Nc2cc3c(C#Cc4ccc(Cl)cn4)nccc3cn2)cc1 [Example 544, 5-((5-chloropyridin-2-yl)ethynyl)-N-(4-(methylsulfonyl)phenyl)-2,6-naphthyridin-3-amine]
–	> 0.25	> 0.25	> 0.25	0.025 to 0.25	–	–	–	CC(C)(O)c1cc2ccc(C#Cc3nccc4cnc(Nc5ccc(S(C)(=O)=O)cc5)cc34)cc2[nH]1 [Example 590, 2-(6-((7-((4-(methylsulfonyl)phenyl)amino)-2,6-naphthyridin-1-yl)ethynyl)-1H-indol-2-yl)propan-2-ol]
–	> 0.25	> 0.25	> 0.25	0.025 to 0.25	–	–	–	Cc1c(-c2nccc3cnc(Nc4ccc(S(C)(=O)=O)cc4)cc23)ncc2[nH]ncc12 [Example 591, 5-(4-methyl-1H-pyrazolo[3,4-c]pyridin-5-yl)-N-(4-(methylsulfonyl)phenyl)-2,6-naphthyridin-3-amine]
–	> 0.25	> 0.25	> 0.25	0.025 to 0.25	–	–	–	CC(Cn1ncc2c(C)c(-c3nccc4cnc(Nc5ccc(S(C)(=O)=O)cc5)cc34)ccc21)=NO [Example 592, 1-(4-methyl-5-(7-((4-(methylsulfonyl)phenyl)amino)-2,6-naphthyridin-1-yl)-1H-indazol-1-yl)propan-2-one oxime]
